# Source: article PMC6397271 (Scientific Reports, 2019)
# Where two headings read alike, the source gives them in different places.
# How the values were obtained:
# [1] = tested on: S. aureus MRSA N315; assay: microbe, parasite or virus in culture; format: cell-based, Staphylococcus aureus
# Text: (§1) Three bacterial strains of MRSA (N315, 12673, 6347) and two of Enterococcus spp. (E. faecium, E. faecalis) were used. With respect to MRSA, N315 represented a reference Van-susceptible strain (GenBank GCA_00000645.1) isolated from a patient while 12673 (Van-intermediately susceptible) and 6347 (a h-VISA which appears at frequency of <10^−5 to 10^−6 is composed of two subpopulations of bacteria: one susceptible and one intermediately resistant)[38] were clinical strains obtained from patients of The Clinical University Centre of Gdańsk (UCK). […] The clinical strain isolates originated from the collection of the Department of Pharmaceutical Technology and Biochemistry, Faculty of Chemistry, Gdańsk University of Technology.
# (§2) The strains were grown in Mueller-Hinton broth (MH cation-adjusted, Becton Dickinson) or Brain Heart Infusion broth (BHI, Becton Dickinson), respectively. The cultivation was carried out in an aerobic atmosphere at 37 °C for 24 hours and, afterwards, the bacterial cultures were diluted in geometric progression with a proper broth. Next, 100 µl of each dilution was inoculated in an agar plate and incubated at 37 °C for 24 h. The next procedures included determination of Colony Forming Units (CFU)/ml and minimal inhibitory concentration (MIC) of the compounds in question. The latter procedure was carried out according to the microbroth dilution technique using 96-well plates. The MICs were evaluated by using the metabolic assay based on the resazurin dye. The assay was performed in triplicates.
# [2] = tested on: S. aureus MRSA hetero-VISA 6347; assay: microbe, parasite or virus in culture; format: cell-based, Staphylococcus aureus; conditions: for MIC: raw MIC
# Text: as §1, §2
# [3] = tested on: S. aureus MRSA 12673; assay: microbe, parasite or virus in culture; format: cell-based, Staphylococcus aureus; conditions: for MIC: raw MIC
# Text: as §1, §2
# [4] = tested on: sheep erythrocytes; assay: Erythrocyte lysis assay; format: cell-based; conditions: 37 °C, 1 hour, A450 nm; for cell lysis (haemolysis): 10^8 cells/ml, vs 4% Triton X-100, triplicates
# Protocol: The protocol of the lysis assay is presented below.
# To obtain sheep erythrocytes, 5 ml of fresh blood was centrifuged at 1000 × g for 10 min and washed 3 times with 0.9% NaCl. Cell suspension (final concentration of 10^8 cells/ml) in a volume of 75 µl was added to each well of the 96-well microtiter plate and incubated at 37 °C in the presence of the tested compounds. The range of their concentrations was 100–0.049 µM (diluted in saline solution), which included that of MIC values for the tested strains of the bacteria.
# Plates with samples were incubated at 37 °C for 1 hour and then centrifuged at 1000 × g for 10 min to separate the unlysed erythrocytes. Next, the supernatant was transferred to a new plate. The absorbance (A) was measured spectrophotometrically at 450 nm of wavelength. The experiments were performed in triplicates.
# The haemolysis percentage was calculated according to the equation presented by Sharma et al.[43]. The percentage of haemolysis = [(A450nm of test compound treated sample-A450nm of buffer treated sample)/(A450nm of 4%TritonX-100 treated samples-A450nm of buffer treated sample)] × 100.
# [5] = tested on: Enterococcus faecalis 3937158; assay: microbe, parasite or virus in culture; format: cell-based; conditions: for MIC: raw MIC
# Text: as §1, §2
# [6] = tested on: Enterococcus faecium 3934825; assay: microbe, parasite or virus in culture; format: cell-based; conditions: for MIC: raw MIC
# Text: as §1, §2
# [7] = same test as μM value, mean ± SD
# [8] = first block, test a, repetition 1, read-out: MIC1a
# [9] = first block, test a, repetition 2, read-out: MIC2a
# [10] = first block, test a, repetition 3, read-out: MIC3a
# [11] = first block, test b, repetition 1, read-out: MIC1b
# [12] = first block, test b, repetition 2, read-out: MIC2b
# [13] = first block, test b, repetition 3, read-out: MIC3b
# [14] = test a, repetition 1, read-out: MIC1a
# [15] = test a, repetition 2, read-out: MIC2a
# [16] = test a, repetition 3, read-out: MIC3a
# [17] = test b, repetition 1, read-out: MIC1b
# [18] = test b, repetition 2, read-out: MIC2b
# [19] = test b, repetition 3, read-out: MIC3b
smiles,measurement,setting,value
"CC[C@H](C)[C@H](NC(=O)[C@H](CCCCN)NC(=O)[C@H](CCCCN)NC(=O)[C@H](C)NC(=O)[C@H](CC(C)C)NC(=O)[C@H](C)NC(=O)[C@H](C)NC(=O)[C@H](CC(C)C)NC(=O)[C@H](C)NC(=O)[C@H](CCCCN)NC(=O)[C@H](CC(C)C)NC(=O)[C@H](CC(N)=O)NC(=O)[C@@H](NC(=O)[C@H](CCCCN)NC(=O)CNC(=O)[C@H](CC(C)C)NC(=O)[C@H](CC(C)C)NC(=O)[C@H](Cc1ccc(O)cc1)NC(=O)CNC(=O)[C@H](C)NC(=O)c1cn(CCOCCOCCOCCNC(=O)[C@H]2NC(=O)[C@H]3NC(=O)[C@H](NC(=O)[C@@H]4NC(=O)[C@H](CC(N)=O)NC(=O)[C@H](NC(=O)[C@@H](CC(C)C)NC)[C@H](O)c5ccc(c(Cl)c5)Oc5cc4cc(c5O[C@@H]4O[C@H](CO)[C@@H](O)[C@H](O)[C@H]4O[C@H]4C[C@](C)(N)[C@H](O)[C@H](C)O4)Oc4ccc(cc4Cl)[C@H]3O)c3ccc(O)c(c3)-c3c(O)cc(O)cc32)nn1)[C@@H](C)CC)C(=O)N[C@@H](CC(C)C)C(N)=O [conjugate I, Van-PEG3-TP10]",MIC,"[1]; microbroth dilution, 96-well, resazurin, 37 °C, 24 h, mean ± SD, at least three independent experiments in triplicates",1.6 ± 0.9 µM
same,MIC,"[1]; microbroth dilution, 96-well, resazurin, 37 °C, 24 h, mean ± SD, at least three independent experiments in triplicates, read-out: MIC",1.6 µM
same,MIC,"[1]; raw MIC, first block, test a, repetition 1, read-out: MIC1a",1.56 µM
same,MIC,"[1]; raw MIC, first block, test a, repetition 2, read-out: MIC2a",3.12 µM
same,MIC,"[1]; raw MIC, first block, test a, repetition 3, read-out: MIC3a",1.56 µM
same,MIC,"[1]; raw MIC, first block, test b, repetition 1, read-out: MIC1b",3.125 µM
same,MIC,"[1]; raw MIC, first block, test b, repetition 2, read-out: MIC2b",1.56 µM
same,MIC,"[1]; raw MIC, first block, test b, repetition 3, read-out: MIC3b",1.56 µM
same,MIC,"[1]; raw MIC, test a, repetition 1, read-out: MIC1a",6.06 µM
same,MIC,"[1]; raw MIC, test a, repetition 2, read-out: MIC2a",12.12 µM
same,MIC,"[1]; raw MIC, test a, repetition 3, read-out: MIC3a",6.06 µM
same,MIC,"[1]; raw MIC, test b, repetition 1, read-out: MIC1b",6.06 µM
same,MIC,"[1]; raw MIC, test b, repetition 2, read-out: MIC2b",6.06 µM
same,MIC,"[1]; raw MIC, test b, repetition 3, read-out: MIC3b",6.06 µM
same,MIC in (μg/ml),[1]; [7],6.1 ± 2.5 µg/mL
same,MIC,[2]; [8],1.56 µM
same,MIC,[2]; [9],1.56 µM
same,MIC,[2]; [10],0.78 µM
same,MIC,[2]; [11],1.56 µM
same,MIC,[2]; [12],1.56 µM
same,MIC,[2]; [13],1.56 µM
same,MIC,[2]; [14],6.06 µM
same,MIC,[2]; [15],6.06 µM
same,MIC,[2]; [16],3.03 µM
same,MIC,[2]; [17],6.06 µM
same,MIC,[2]; [18],6.06 µM
same,MIC,[2]; [19],6.06 µM
same,MIC in (μg/ml),[2]; [7],6.1 ± 1.2 µg/mL
same,MIC,[3]; [8],1.56 µM
same,MIC,[3]; [9],3.12 µM
same,MIC,[3]; [10],1.56 µM
same,MIC,[3]; [11],1.56 µM
same,MIC,[3]; [12],3.12 µM
same,MIC,[3]; [13],3.12 µM
same,MIC,[3]; [14],6.06 µM
same,MIC,[3]; [15],6.06 µM
same,MIC,[3]; [16],6.06 µM
same,MIC,[3]; [17],6.06 µM
same,MIC,[3]; [18],12.12 µM
same,MIC,[3]; [19],12.12 µM
same,MIC in (μg/ml),[3]; [7],6.1 ± 3.1 µg/mL
same,cell lysis (haemolysis),[4]; 12.5 µM,15%
same,cell lysis (haemolysis),[4]; 100 µM,93%
same,hemolysis at MIC concentrations,[4]; 6.25–0.78 μM,lack of hemolysis
same,MIC,[5]; [8],6.25 µM
same,MIC,[5]; [9],3.1 µM
same,MIC,[5]; [10],6.25 µM
same,MIC,[5]; [11],6.25 µM
same,MIC,[5]; [12],6.25 µM
same,MIC,[5]; [13],3.1 µM
same,MIC,[5]; [14],24.27 µM
same,MIC,[5]; [15],12.14 µM
same,MIC,[5]; [16],24.27 µM
same,MIC,[5]; [17],24.27 µM
same,MIC,[5]; [18],24.27 µM
same,MIC,[5]; [19],12.14 µM
same,MIC in (μg/ml),[5]; [7],24.3 ± 6.3 µg/mL
same,MIC,[6]; [8],50 µM
same,MIC,[6]; [9],50 µM
same,MIC,[6]; [10],50 µM
same,MIC,[6]; [11],25 µM
same,MIC,[6]; [12],50 µM
same,MIC,[6]; [13],50 µM
same,MIC,[6]; [14],194.2 µM
same,MIC,[6]; [15],194.2 µM
same,MIC,[6]; [16],194.2 µM
same,MIC,[6]; [17],97.1 µM
same,MIC,[6]; [18],194.2 µM
same,MIC,[6]; [19],194.2 µM
same,MIC in (μg/ml),[6]; [7],194.2 ± 39.6 µg/mL
